We go through two compounds from patent US20190297888A1, “FUNGICIDAL COMPOUNDS AND MIXTURES FOR FUNGAL CONTROL IN CEREALS” (Dow AgroSciences LLC, priority 2016, published 2019).

Type in all cases: in vivo
In test [1] the test system is Zymoseptoria tritici (SEPTTR). Briefly: Field assessment of Compound I and fluxapyroxad on leaf blotch of wheat (AUDPC % control). To be noted: AUDPC-based, 2 field trials. From the text:
Treatments consisting of the compound of Formula I and fungicide compound fluxapyroxad against fungal diseases of wheat were applied either using individually or as a two-way mixture of fluxapyroxad with the compound of Formula I. The compound of Formula I was applied with Agnique BP-420 (50% w/w at 0.3% v/v) at 50, 75 and 100 g ai/ha and Imtrex (Fluxapyroxad 62.5 g/L) was applied at 50, 75 and 100 g ai/ha. Commercial standards used in the studies were Adexar (epoxiconazole+fluxapyroxad—125 g/L), applied at 1.2 and 1.6 L pr/ha, and Elatus Era (benzovindiflupyr+prothioconazole—225 g/L), applied at 1.0 L pr/ha.
Fungicidal treatments containing the compound of Formula I and fluxapyroxad, either individually or as a two-way mixture, were assessed against leaf spot of wheat (SEPTTR) in two separate field trials. In the first trial, fungicidal treatments were applied at B32 (curative, 12% infection at application on L4) growth stage of winter wheat (TRZAW, TOBAK variety). The treatments were part of an experimental trial designed as a randomized complete block with four replications and a plot of approximately 2×2 m. Treatments were applied at water volume of 200 L/ha, using a backpack plot sprayer (BCYAIR, FLATFANA nozzle) and pressurized at 220 kPa.
In the second trial, fungicidal treatments were applied at B33-39 (curative, 50% infection at application on L5) growth stages of winter wheat (TRZAW, Consort variety). The treatments were part of an experimental trial designed as a randomized complete block with four replications and a plot of approximately 1.5×14 m. Treatments were applied at water volume of 200 L/ha, using a backpack plot sprayer (BKPCKAIR, Flat fan nozzle) and pressurized at 210 kPa.
Disease severity (percentage of visual diseased foliage on whole plot or leaves) in both field trials was recorded following EPPO PP1/26 guideline prescriptions. Area under the disease progress curve (AUDPC) was calculated for each plot in both trials using the sets of recorded severity data. Relative AUDPC (% control based on AUDPC) was calculated as percent of the nontreated control. Final results for the control of leaf spot of wheat by the compound of Formula I, fluxapyroxad and mixtures are reported as an average of the relative AUDPC calculated over both field trials. Statistical analysis was done according to ANOVA and Tukey's test (p=0.10).

Test [2] concerns Rhyncosporium secalis (RHYNSE). As to the kind of experiment: Field assessment of Compound I and fluxapyroxad on leaf scald of barley (AUDPC % control). To be noted: AUDPC-based, one field trial. The method, then:
Commercial standards used in the studies were Proline 275 (275 g ai/L Prothioconazole), applied at 150 g ai/ha, and SiltraXpro (200 g ai/L prothioconazole+60 g ai/[…] bixafen), applied at 195 g ai/ha.
Fungicidal treatments containing the compound of Formula I and fluxapyroxad, either individually or as a two-way mixture, were assessed against scald of barley (RHYNSE) in one field trial. In the trial, fungicidal treatments were applied at B37-39 growth stages of winter barley (HORVW, Maris Otter variety) under natural infection of barley scald (protectant test, approximately 1% infection on leaf 4 at application). All treatments were part of an experimental trial designed as a randomized complete block with four replications.
Disease severity (percentage of visual diseased foliage on whole plot or leaves) in the field trial was recorded following EPPO PP1/26 guideline prescriptions. Area under the disease progress curve (AUDPC) was calculated for each plot in the trial using the sets of recorded severity data. Relative AUDPC (% control based on AUDPC) was calculated as percent of the nontreated control. […] Statistical analysis was done according to ANOVA and Tukey's test (p=0.10).

The subject of test [3] is Zymoseptoria tritici (SEPTTR). As to the kind of experiment: Field assessment of Compound I and penthiopyrad on leaf blotch of wheat (AUDPC % control). The following applies: AUDPC-based, 3 field trials. From the text: Treatments consisting of the compound of Formula I and fungicide compound penthiopyrad were applied either using individually or as a two-way mixture of penthiopyrad with the compound of Formula I. The compound of Formula I was applied with Agnique BP-420 (50% w/w at 0.3% v/v) at 75 and 150 g ai/ha and Penthiopyrad (Vertisan) was applied at 125 and 200 g ai/ha. Commercial standards used in the studies were Fluxapyroxad (Imtrex), applied at 100 g ai/ha, and Metconazole+Fluxapyroxad (Librax), applied at 161 g ai/ha.
Fungicidal treatments containing the compound of Formula I and penthiopyrad, either individually or as a two-way mixture, were assessed against leaf spot of wheat (SEPTTR) in three separate field trials. In the first trial, fungicidal treatments were applied at B33 (3% infection at application on L3) growth stage of winter wheat (TRZAW, Dinosor variety). The treatments were part of an experimental trial designed as a randomized complete block with four replications and a plot of approximately 1×6 m. Treatments were applied at water volume of 200 L/ha, using a backpack plot sprayer (BKPCKENG, FLATFANA nozzle) and pressurized at 200 kPa.
In the second trial, fungicidal treatments were applied twice at B32 (curative, 25% infection at application on L5) and B37-39 (5% infection at application on L3) growth stages of winter wheat (TRZAW, Consort variety). The treatments were part of an experimental trial designed as a randomized complete block with four replications and a plot of approximately 1×2 m. Treatments were applied at water volume of 200 L/ha, using a backpack plot sprayer (BKPCKAIR, Flat fan nozzle) and pressurized at 210 kPa.
In the final trial, fungicidal treatments were applied twice at B32 (protective, 15% infection at application on L6) and B37-39 (12% infection at application on L5) growth stages of winter wheat (TRZAW, Smaragd variety). The treatments were part of an experimental trial designed as a randomized complete block with four replications and a plot of approximately 2×3 m. Treatments were applied at water volume of 200 L/ha, using a backpack plot sprayer (BICYCAIR, FLATFANA nozzle) and pressurized at 220 kPa.
Disease severity (percentage of visual diseased foliage on whole plot or leaves) in […] field trials was recorded following EPPO PP1/26 guideline prescriptions. Area under the disease progress curve (AUDPC) was calculated for each plot in both trials using the sets of recorded severity data. Relative AUDPC (% control based on AUDPC) was calculated as percent of the nontreated control. Final results for the control of leaf spot of wheat by the compound of Formula I, penthiopyrad and mixtures are reported as an average of the relative AUDPC calculated over all three field trials. […]

Consider `N#Cc1ccc(Oc2ccc(C(F)(F)C(O)(Cn3ncnc3S)c3ccc(F)cc3F)nc2)cc1` (centres unmarked) [Compound I, 4-((6-(2-(2,4-difluorophenyl)-1,1-difluoro-2-hydroxy-3-(5-mercapto-1H-1,2,4-triazol-1-yl)propyl)pyridin-3-yl)oxy)benzonitrile], for which the “SEPTTR % Control” value was 43.9% in test [1] (rate 50 g ai/ha); 50.7% in test [1] (rate 75 g ai/ha); 56.6% in test [1] (rate 100 g ai/ha); 60.6% in test [3] (rate 75 g ai/ha); 71.1% in test [3] (rate 150 g ai/ha). Besides, the “RHYNSE % Control” value in test [2] (rate 75 g ai/ha) is 67.2%; in test [2] (rate 100 g ai/ha), 61.3%; in test [2] (rate 150 g ai/ha) it was 81.1%.

`Cn1cc(C(=O)Nc2ccccc2-c2cc(F)c(F)c(F)c2)c(C(F)F)n1` [Fluxapyroxad, 3-(difluoromethyl)-1-methyl-N-(3′,4′,5′-trifluorobiphenyl-2-yl)pyrazole-4-carboxamide]: the “SEPTTR % Control” value in test [1] (rate 50 g ai/ha) was determined as 47.4%; in test [1] (rate 75 g ai/ha), 60.9%; in test [1] (rate 100 g ai/ha), 66.4%. Besides, the “RHYNSE % Control” value is on record as 78.7% in test [2] (rate 45 g ai/ha), 77.2% in test [2] (rate 62.5 g ai/ha) and 95.7% in test [2] (rate 100 g ai/ha).
